Source: patent US20090176817A1, “Method of Treatment of Diarrhea-Predominant Irritable Bowel Syndrome in a Subject” (priority 2005, published 2009)
Marks after values point to notes of the source that are not given here.

Tests used:
[1] = Study S.241.1.110: ex vivo protein binding in serum, healthy and renally impaired; details: for Fraction unbound ratio All Renal Groups Combined:Healthy / Fraction unbound ratio Mild:Healthy / Fraction unbound ratio Moderate:Healthy / Fraction unbound ratio Severe:Healthy: ratio (90% CI)
Experimental: The ex vivo protein binding of cilansetron and its 4-hydroxy metabolites has been measured in serum samples collected in a multiple-dose study in healthy and renally impaired male and female subjects, aged 33-74 years. […] Healthy subjects were matched to renally-impaired subjects with respect to age, weight, gender, and smoking status. All subjects received oral cilansetron 2 mg TID on Days 1 to 5, and a single dose on the morning of Day 6.

[2] = Study S.241.1.109: interaction with paroxetine 20 mg QD; assay type: in vivo, human; details: for AUC(0-τ) / Cmax / Tmax: steady state; for AUC(0-τ): AUC(0-8); for AUC(0-τ) / Cmax: arith. mean; for Tmax: median; for Mean AUC increase with paroxetine / Mean Cmax increase with paroxetine: human
Experimental: In an open-label, randomized, parallel-group study in three groups of 12 healthy, male and female subjects (aged 19 to 45 years), subjects received a 2 mg single dose of cilansetron on Day 1, 2 mg TID on Days 2-13, and a 2 mg single dose on Day 14. […] All morning doses of cilansetron and enzyme inhibitors were administered immediately after a standard breakfast. […] For each treatment group, log-transformed cilansetron AUC(0-τ) and Cmax values on Day 14 (cilansetron+enzyme inhibitor) were compared statistically versus values on Day 7 (cilansetron alone).
FIG. 50, FIG. 51, and FIG. 52 present geometric mean steady-state plasma concentration-time profiles for cilansetron and its 4-hydroxy metabolites in the absence and presence of concomitant paroxetine. […] These increases in exposure are not clinically significant.

[3] = Study S.241.1.107: pharmacokinetics in hepatic impairment, 8 mg TID; details: for AUC(0-τ): AUC(0-8); for AUC(0-τ) / Cmax / T½: arith. mean (%CV); for Tmax: median
[4] = Study S.241.1.110: pharmacokinetics in renal impairment, 2 mg TID; details: for AUC(0-τ) / Cmax / T½ / Tmax / Cmin: cilansetron 2 mg TID; for AUC(0-τ) / Cmax / T½ / Cmin: mean (%CV); for Tmax: median; for Cmin: Day 6 morning predose value
Experimental: The effect of renal impairment on the pharmacokinetics of cilansetron was evaluated in a study excluding subjects with end-stage renal disease, and utilizing a single-center, open-label, multiple-dose, parallel group study in 13 male and 9 female subjects, aged 33-74 years. […] Healthy subjects were matched to renally-impaired subjects with respect to age, weight, gender, and smoking status. All subjects received oral cilansetron 2 mg TID on Days 1 to 5, and a single dose on the morning of Day 6. Blood samples for measurement of plasma pharmacokinetics of cilansetron and its 4-hydroxy metabolites were collected up to 24 hours following dosing on Day 6, and log-transformed pharmacokinetic parameters for these analytes were statistically compared between study groups. Serum concentrations of unbound cilansetron and its 4-hydroxy metabolites were also measured prior to dosing and at 1 and 1.5 hours postdose on Day 6.

[5] = Study S241.1.111: relative bioavailability and food effect, 2 mg tablet vs oral solution; assay type: in vivo, human; details: for AUC(0-t): AUC(0-last); for half-life: T½
Experimental: Subjects were randomized to receive a cilansetron 2 mg tablet after an overnight fast, a cilansetron 2 mg tablet after a high-fat breakfast, and a cilansetron 2 mg oral solution after an overnight fast during the three treatment periods, with a 7-day washout between periods. Serial blood sampling was performed up to 24 hours following each treatment, and plasma pharmacokinetics parameters for cilansetron and its metabolites, (4R)-hydroxy cilansetron and (4S)-hydroxy cilansetron, were estimated. FIG. 4, FIG. 5, and FIG. 6 present mean plasma concentration-time profiles for cilansetron and its metabolites following treatment with the cilansetron tablet and oral solution. Table 2.7.1.2.2 presents descriptive statistics for the pharmacokinetic parameters of cilansetron and its metabolites for the tablet and oral solution, and the results of statistical comparisons between treatments (tablet versus solution).
Subjects were randomized to receive a cilansetron 2 mg tablet after an overnight fast, a cilansetron 2 mg tablet after a high-fat breakfast, and a cilansetron 2 mg oral solution after an overnight fast during the three treatment periods, with a 7-day washout between periods. Serial blood sampling was performed up to 24 hours following each treatment and plasma pharmacokinetics parameters for cilansetron and its metabolites, (4R)-hydroxy cilansetron and (4S)-hydroxy cilansetron, were estimated. FIG. 7, FIG. 8, and FIG. 9 present mean plasma concentration-time profiles for cilansetron and its metabolites following treatment with the cilansetron tablet under fasted conditions and following a high-fat meal. Table 2.7.1.2.4 presents descriptive statistics for the pharmacokinetic parameters of cilansetron and its metabolites for the tablet under fed and fasted conditions, and the results of statistical comparisons between treatments (fed versus fasted).

[6] = Cilansetron 2 mg TID + Paroxetine 20 mg QD
[7] = Cilansetron 2 mg TID alone (paroxetine group)
[8] = cilansetron + paroxetine / cilansetron alone, ANOVA of log-transformed data
[9] = geometric LS mean ratio impaired/healthy, cilansetron 8 mg TID oral
[10] = healthy, cilansetron 8 mg TID oral
[11] = hepatically impaired, cilansetron 8 mg TID oral
[12] = moderate renal impairment, Day 6
[13] = 2 mg tablet, fasted, single dose
[14] = both sexes, human, in vivo, 2 mg
[15] = both sexes, human, in vivo, po, 2 mg

Cc1nccn1CC1CCc2c(c3cccc4c3n2CC[C@H]4O)C1=O (stereo partly drawn) [(4R)-hydroxy cilansetron]
Fraction unbound ratio All Renal Groups Combined:Healthy ([1]; 1 h): 121 (109, 134)^b %
Fraction unbound ratio Mild:Healthy ([1]; 1 h): 106 (93, 121) %
Fraction unbound ratio Moderate:Healthy ([1]; 1 h): 137 (119, 157)^b %
Fraction unbound ratio Severe:Healthy ([1]; 1 h): 121 (105, 140)^b %
Fraction Unbound in Serum ([1]; Day 6 1 h, Healthy): 24.7 (7) %
Fraction Unbound in Serum ([1]; Day 6 1 h, Mild): 26.4 (14) %
Fraction Unbound in Serum ([1]; Day 6 1 h, Moderate): 34.3 (22) %
Fraction Unbound in Serum ([1]; Day 6 1 h, Severe): 30.2 (18) %
Fraction Unbound in Serum ([1]; Day 6 […], Healthy): 27.6 (15) %
Fraction Unbound in Serum ([1]; Day 6 […], Mild): 26.2 (17) %
Fraction Unbound in Serum ([1]; Day 6 […], Moderate): 28.5 (13) %
Fraction Unbound in Serum ([1]; Day 6 […], Severe): 23.7 (11) %
Fraction Unbound in Serum ([1]; Day 6 predose, Healthy): 25.3 (11) %
Fraction Unbound in Serum ([1]; Day 6 predose, Mild): 29.6 (30) %
Fraction Unbound in Serum ([1]; Day 6 predose, Moderate): 31.0 (21) %
Fraction Unbound in Serum ([1]; Day 6 predose, Severe): 32.4 (17) %
Fraction unbound ratio All Renal Groups Combined:Healthy ([1]; […]): 95 (85, 105) %
Fraction unbound ratio Mild:Healthy ([1]; […]): 95 (83, 109) %
Fraction unbound ratio Moderate:Healthy ([1]; […]): 104 (90, 120) %
Fraction unbound ratio Severe:Healthy ([1]; […]): 86 (74, 100) %
Protein bound on average ([1]; healthy subjects): 72.4-75.3%
Fraction unbound ratio All Renal Groups Combined:Healthy ([1]; predose): 121 (105, 139)^b %
Fraction unbound ratio Mild:Healthy ([1]; predose): 114 (96, 137) %
Fraction unbound ratio Moderate:Healthy ([1]; predose): 122 (100, 147) %
Fraction unbound ratio Severe:Healthy ([1]; predose): 128 (105, 155)^b %
Plasma protein bound ([1]; therapeutic concentration range): 72-75%
AUC(0-τ) [2, 6]: 15.2 ng·h/mL
Cmax [2, 6]: 3.41 ng/mL
Tmax [2, 6]: 1.50 h
AUC(0-τ) [2, 7]: 13.5 ng·h/mL
Cmax [2, 7]: 2.76 ng/mL
Tmax [2, 7]: 2.50 h
AUC(0-τ) Ratio (Treatment B/A) [2, 8]: 116%
Cmax Ratio (Treatment B/A) [2, 8]: 127%
Mean AUC increase with paroxetine ([2]; in vivo): 16%
Mean Cmax increase with paroxetine ([2]; in vivo): 27%
AUC(0-τ) Ratio [3, 9]: 0.86
Cmax Ratio [3, 9]: 0.70
AUC(0-τ), Geom. LS Mean [3, 10]: 57.4 ng·h/mL
Cmax, Geom. LS Mean [3, 10]: 13.2 ng/mL
AUC(0-τ) [3, 10]: 62.7 (32) ng · h/mL
Cmax [3, 10]: 14.1 (28) ng/mL
T½ [3, 10]: 6.38 (18) h
Tmax [3, 10]: 1.00 h
AUC(0-τ), Geom. LS Mean [3, 11]: 49.4 ng·h/mL
Cmax, Geom. LS Mean [3, 11]: 9.30 ng/mL
AUC(0-τ) [3, 11]: 53.7 (40) ng · h/mL
Cmax [3, 11]: 11.1 (62) ng/mL
T½ [3, 11]: 10.0 (41) h
Tmax [3, 11]: 1.50 h
AUC(0-τ) decrease with hepatic impairment ([3]; in vivo): 14%
Cmax decrease with hepatic impairment ([3]; in vivo): 30%
Plasma Conc. ([4]; Day 6 1 h, Healthy): 3.90 (37) ng/mL
Plasma Conc. ([4]; Day 6 1 h, Mild): 4.86 (39) ng/mL
Plasma Conc. ([4]; Day 6 1 h, Moderate): 3.94 (32) ng/mL
Plasma Conc. ([4]; Day 6 1 h, Severe): 7.67 (38) ng/mL
AUC(0-τ) ratio Mild/Healthy ([4]; Day 6, geometric LS mean ratio (90% CI)): 118 (90, 153) %
AUC(0-τ) ratio Moderate/Healthy ([4]; Day 6, ratio (90% CI)): 137 (104, 182) %
AUC(0-τ) ratio Renal Combined/Healthy ([4]; Day 6, ratio (90% CI)): 166 (136, 204)* %
AUC(0-τ) ratio Severe/Healthy ([4]; Day 6, ratio (90% CI)): 284 (215, 377)* %
Cmax ratio Mild/Healthy ([4]; Day 6, ratio (90% CI)): 134 (101, 177) %
Cmax ratio Moderate/Healthy ([4]; Day 6, ratio (90% CI)): 137 (102, 185) %
Cmax ratio Renal Combined/Healthy ([4]; Day 6, ratio (90% CI)): 158 (127, 196)* %
Cmax ratio Severe/Healthy ([4]; Day 6, ratio (90% CI)): 215 (159, 290)* %
T½ ratio Mild/Healthy ([4]; Day 6, ratio (90% CI)): 109 (84, 142) %
T½ ratio Moderate/Healthy ([4]; Day 6, ratio (90% CI)): 129 (97, 171) %
T½ ratio Renal Combined/Healthy ([4]; Day 6, ratio (90% CI)): 140 (114, 172)* %
T½ ratio Severe/Healthy ([4]; Day 6, ratio (90% CI)): 195 (147, 259)* %
Plasma Conc. ([4]; Day 6 […], Healthy): 3.79 (20) ng/mL
Plasma Conc. ([4]; Day 6 […], Mild): 3.86 (20) ng/mL
Plasma Conc. ([4]; Day 6 […], Moderate): 4.75 (28) ng/mL
Plasma Conc. ([4]; Day 6 […], Severe): 7.87 (38) ng/mL
AUC(0-τ) ([4]; healthy subjects, Day 6): 18.7 (21) ng · h/mL
Cmax ([4]; healthy subjects, Day 6): 4.30 (33) ng/mL
T½ ([4]; healthy subjects, Day 6): 7.05 (21) h
Tmax ([4]; healthy subjects, Day 6): 1.25 h
Cmin ([4]; healthy subjects): 1.56 (24) ng/mL
Exposure increase with severe renal impairment ([4]; in vivo): 2-3 fold
Mean AUC(0-τ) increase vs healthy ([4]; mild impairment): 18%
Mean Cmax increase vs healthy ([4]; mild impairment): 34%
AUC(0-τ) ([4]; mild renal impairment, Day 6): 21.6 (9) ng · h/mL
Cmax ([4]; mild renal impairment, Day 6): 5.66 (25) ng/mL
T½ ([4]; mild renal impairment, Day 6): 7.93 (38) h
Tmax ([4]; mild renal impairment, Day 6): 1.25 h
Cmin ([4]; mild renal impairment): 1.68 (24) ng/mL
Mean AUC(0-τ) increase vs healthy ([4]; moderate impairment): 37%
Mean Cmax increase vs healthy ([4]; moderate impairment): 37%
AUC(0-τ) [4, 12]: 26.3 (34) ng · h/mL
Cmax [4, 12]: 5.83 (28) ng/mL
T½ [4, 12]: 9.32 (36) h
Tmax [4, 12]: 1.25 h
Cmin ([4]; moderate renal impairment): 2.06 (40) ng/mL
Mean AUC(0-τ) increase vs healthy ([4]; severe impairment): 184%
Mean Cmax increase vs healthy ([4]; severe impairment): 115%
AUC(0-τ) ([4]; severe renal impairment, Day 6): 55.8 (45) ng · h/mL
Cmax ([4]; severe renal impairment, Day 6): 9.35 (39) ng/mL
T½ ([4]; severe renal impairment, Day 6): 13.9 (30) h
Tmax ([4]; severe renal impairment, Day 6): 1.50 h
Cmin ([4]; severe renal impairment): 4.36 (36) ng/mL
AUC(0-inf) ([5]; 2 mg oral solution, fasted): 14.3 (26) ng · h/mL
AUC(0-last) ([5]; 2 mg oral solution, fasted): 13.5 (27) ng · h/mL
Cmax ([5]; 2 mg oral solution, fasted): 2.82 (26) ng/mL
T½ ([5]; 2 mg oral solution, fasted): 3.90 (19) h
Tmax ([5]; 2 mg oral solution, fasted, median): 1.00 h
AUC(0-inf) [5, 13]: 14.4 (25) ng · h/mL
AUC(0-last) [5, 13]: 13.7 (26) ng · h/mL
Cmax [5, 13]: 2.87 (20) ng/mL
T½ [5, 13]: 3.90 (22) h
Tmax ([5]; 2 mg tablet, fasted, median): 1.25 h
AUC(0-inf) ([5]; 2 mg tablet, fed): 13.6 (26) ng · h/mL
Cmax ([5]; 2 mg tablet, fed): 2.23 (26) ng/mL
T½ ([5]; 2 mg tablet, fed): 4.46 (31) h
AUC(0-last) ([5]; 2 mg tablet, fed (high-fat breakfast)): 12.8 (27) ng · h/mL
Tmax ([5]; 2 mg tablet, fed, median): 1.75 h

Cc1nccn1C[C@H]1CCc2c(c3cccc4c3n2CCC4)C1=O [Cilansetron, (R)-(−)-4,5,6,8,9,10-hexahydro-10-[(2-methyl-1H-imidazol-1-yl)methyl]-11H-pyrido-[3,2,1-jk]-carbazol-11-one]
Mean AUC increase with paroxetine ([2]; both, in vivo): 20%
Mean Cmax increase with paroxetine ([2]; both, in vivo): 36%
Effect of paroxetine ([2]; in vivo): no significant effect
AUC(0-inf) ([5]; both sexes, human, in vivo, 2 mg, AUC(0-inf)): 22.8 ng·h/mL
AUC(0-t) [5, 14]: 22.4 ng·h/mL
Cmax ([5]; both sexes, human, in vivo, 2 mg, Cmax): 8.24 ng/mL
Tmax ([5]; both sexes, human, in vivo, 2 mg, Tmax): 1 h
half-life [5, 14]: 1.42 h
AUC(0-inf) ([5]; both sexes, human, in vivo, po, 2 mg, AUC(0-inf)): 20.7 ng·h/mL
AUC(0-t) [5, 15]: 20.2 ng·h/mL
Cmax ([5]; both sexes, human, in vivo, po, 2 mg, Cmax): 7.55 ng/mL
Tmax ([5]; both sexes, human, in vivo, po, 2 mg, Tmax): 1 h
half-life [5, 15]: 1.48 h
Intrasubject % CV for AUC ([5]; both, human, in vivo): 19.2%
Intrasubject % CV for Cmax ([5]; both, human, in vivo): 24.5%
AUC(0-inf) increase under fed conditions ([5]; both, human, in vivo, 2 mg): 20%
AUC(0-inf) ratio fed/fasted ([5]; both, human, in vivo, 2 mg): 121%
Cmax ratio fed/fasted ([5]; both, human, in vivo, 2 mg): 101%
AUC(0-inf) ratio tablet/oral solution ([5]; both, human, in vivo, po): 99%
Cmax ratio tablet/oral solution ([5]; both, human, in vivo, po): 108%
